{
  "source": "patent US11130733B2",
  "about": "“4-OXO-alkylated tetramic acid compound, preparation method and use thereof” (BEIJING JOEKAI BIOTECH. LLC, priority 2017, dated 2021)",
  "test": "Pharmacokinetic evaluation, plasma and brain concentrations",
  "assay_type": "in vivo, ICR mice",
  "from_the_text": "Distribution of a medicament in the body is one of the important indicators to determine the dose and efficacy of the medicament. Thus, excellent candidate compounds should have good pharmacokinetic characteristics. In addition, since the compound of the present invention is intended to be used for the treatment of Alzheimer's disease, which is a disease of the central nervous system, the distribution pattern of the compound in the brain and the blood is also one of the subjects to be investigated. In this experiment, compound 50561 was administered to mice […] or by gavage, and the concentrations of the compound in blood and brain were measured at specific time points to determine the pharmacokinetic parameters.\nForty-eight male ICR mice purchased from Shanghai Sippr-BK Lab. Animal Co. Ltd were used in this experiment. The oral group was fasted for 10-14 hours before administration, and feeding was restored 4 hours after administration. Samples were collected from the intravenous administration group 0.083 h, 0.25 h, 0.5 h, 1 h, 2 h, 4 h, 8 h, and 24 h after administration, respectively: while for the oral administration group, about 0.5 mL of blood was collected from the heart 0.25 h, 0.5 h, 1 h, 2 h, 4 h, 6 h, 8 h, and 24 h after administration, respectively. Heparin sodium was used for anticoagulation. Blood samples were collected and placed on ice, and plasma was separated by centrifugation (centrifugation conditions: 8000 rpm, 6 minutes, 4C). The collected plasma was stored at −80° C. before analysis. After collecting plasma samples, brain tissues were collected, washed with normal saline, water-absorbed by filter paper, weighed immediately, and then placed in labeled tubes (one tube for one brain tissue). The samples to be tested were temporarily placed on ice before being stored in a −80° C. refrigerator.\nThe analysis methods of biological samples and the analysis of all samples were done by Medicilon Pharmaceutical Technology (Shanghai) Co., Ltd. The intraday accuracy evaluation of the quality control samples was carried out while analyzing the samples, and the accuracy of over 66.7% of the quality control samples was required to be between 80-120%.\nWhen calculating the pharmacokinetic parameters, the BLQ before Cmax (including “No peak”) was calculated as 0; BLQ occurring after Cmax (including “No peak”) was not involved in the calculation. WinNonlin Professional V 5.2 (Pharsight, USA) was adopted to calculate the following pharmacokinetic parameters: AUC(0-t), AUC(0-∞), T1/2, MRT(0-∞), Cmax, and Tmax. The tissue/plasma ratio was to be calculated by the following formula based on the blood concentration data at different time points: Tissue/plasma ratio (mL/g)=tissue blood concentration/plasma blood concentration.",
  "note": "Where “and” joins values, the source holds several entries; their conditions need not be identical. Identical values can stand only once.",
  "data": [
    {"smiles": "O=C1C=C(OCc2ccc(F)cc2)[C@H](Cc2ccccc2)N1", "note": "[Compound 50561]", "values": [
      {"measurement": "Brain/plasma ratio, Mean", "setting": "IV 1 mg/kg, 0.083 hr", "result": 2.499, "unit": "mL/G"},
      {"measurement": "Blood concentration, individual mice", "setting": "IV 1 mg/kg, 0.083 hr, 1 mg/kg", "result": "327.86 ng/mL and 145.16 ng/mL and 434.45 ng/mL"},
      {"measurement": "Brain tissue concentration, individual mice", "setting": "IV 1 mg/kg, 0.083 hr, 1 mg/kg", "result": "853.63 ng/G and 383.96 ng/G"},
      {"measurement": "Brain/plasma ratio, individual mice", "setting": "IV 1 mg/kg, 0.083 hr, 1 mg/kg", "result": "2.604 mL/G and 2.645 mL/G and 2.249 mL/G"},
      {"measurement": "Brain/plasma ratio, Mean", "setting": "IV 1 mg/kg, 0.25 hr", "result": 2.342, "unit": "mL/G"},
      {"measurement": "Blood concentration, individual mice", "setting": "IV 1 mg/kg, 0.25 hr, 1 mg/kg", "result": "180.29 ng/mL and 215.73 ng/mL"},
      {"measurement": "Brain tissue concentration, individual mice", "setting": "IV 1 mg/kg, 0.25 hr, 1 mg/kg", "result": "435.34 ng/G and 465.70 ng/G"},
      {"measurement": "Brain/plasma ratio, individual mice", "setting": "IV 1 mg/kg, 0.25 hr, 1 mg/kg", "result": "2.451 mL/G and 2.415 mL/G and 2.159 mL/G"},
      {"measurement": "Brain/plasma ratio, Mean", "setting": "IV 1 mg/kg, 0.5 hr", "result": 2.488, "unit": "mL/G"},
      {"measurement": "Blood concentration, individual mice", "setting": "IV 1 mg/kg, 0.5 hr, 1 mg/kg", "result": "98.13 ng/mL and 89.73 ng/mL"},
      {"measurement": "Brain tissue concentration, individual mice", "setting": "IV 1 mg/kg, 0.5 hr, 1 mg/kg", "result": "251.60 ng/G and 211.84 ng/G"},
      {"measurement": "Brain/plasma ratio, individual mice", "setting": "IV 1 mg/kg, 0.5 hr, 1 mg/kg", "result": "2.540 mL/G and 2.564 mL/G and 2.361 mL/G"},
      {"measurement": "Brain/plasma ratio, Mean", "setting": "IV 1 mg/kg, 1 hr", "result": 3.007, "unit": "mL/G"},
      {"measurement": "Blood concentration, individual mice", "setting": "IV 1 mg/kg, 1 hr, 1 mg/kg", "result": "18.27 ng/mL and 8.99 ng/mL and 18.70 ng/mL"},
      {"measurement": "Brain tissue concentration, individual mice", "setting": "IV 1 mg/kg, 1 hr, 1 mg/kg", "result": "35.43 ng/G and 51.45 ng/G"},
      {"measurement": "Brain/plasma ratio, individual mice", "setting": "IV 1 mg/kg, 1 hr, 1 mg/kg", "result": "2.330 mL/G and 3.941 mL/G and 2.751 mL/G"},
      {"measurement": "Blood concentration, individual mice", "setting": "IV 1 mg/kg, 2 hr", "result": "BLQ"},
      {"measurement": "Brain tissue concentration, individual mice", "setting": "IV 1 mg/kg, 2 hr", "result": "BLQ"},
      {"measurement": "Blood concentration, individual mice", "setting": "IV 1 mg/kg, 4 hr", "result": "BLQ"},
      {"measurement": "Brain tissue concentration, individual mice", "setting": "IV 1 mg/kg, 4 hr", "result": "BLQ"},
      {"measurement": "Blood concentration, individual mice", "setting": "IV 1 mg/kg, 8 hr", "result": "BLQ"},
      {"measurement": "Brain tissue concentration, individual mice", "setting": "IV 1 mg/kg, 8 hr", "result": "BLQ"},
      {"measurement": "Blood concentration, individual mice", "setting": "IV 1 mg/kg, 24 hr", "result": "BLQ"},
      {"measurement": "Brain tissue concentration, individual mice", "setting": "IV 1 mg/kg, 24 hr", "result": "BLQ"},
      {"measurement": "Brain/plasma ratio, Mean", "setting": "PO 10 mg/kg, 0.25 hr", "result": 1.877, "unit": "mL/G"},
      {"measurement": "Blood concentration, individual mice", "setting": "PO 10 mg/kg, 0.25 hr, 10 mg/kg", "result": "655.31 ng/mL and 548.11 ng/mL"},
      {"measurement": "Brain tissue concentration, individual mice", "setting": "PO 10 mg/kg, 0.25 hr, 10 mg/kg", "result": "1042.09 ng/G and 1147.13 ng/G"},
      {"measurement": "Brain/plasma ratio, individual mice", "setting": "PO 10 mg/kg, 0.25 hr, 10 mg/kg", "result": "1.948 mL/G and 1.590 mL/G and 2.093 mL/G"},
      {"measurement": "Brain/plasma ratio, Mean", "setting": "PO 10 mg/kg, 0.5 hr", "result": 2.147, "unit": "mL/G"},
      {"measurement": "Blood concentration, individual mice", "setting": "PO 10 mg/kg, 0.5 hr, 10 mg/kg", "result": "631.98 ng/mL and 529.57 ng/mL"},
      {"measurement": "Brain tissue concentration, individual mice", "setting": "PO 10 mg/kg, 0.5 hr, 10 mg/kg", "result": "2484.73 ng/G and 1280.85 ng/G and 1048.58 ng/G"},
      {"measurement": "Brain/plasma ratio, individual mice", "setting": "PO 10 mg/kg, 0.5 hr, 10 mg/kg", "result": "2.435 mL/G and 2.027 mL/G and 1.980 mL/G"},
      {"measurement": "Brain/plasma ratio, Mean", "setting": "PO 10 mg/kg, 1 hr", "result": 2.265, "unit": "mL/G"},
      {"measurement": "Blood concentration, individual mice", "setting": "PO 10 mg/kg, 1 hr, 10 mg/kg", "result": "599.81 ng/mL and 532.80 ng/mL"},
      {"measurement": "Brain tissue concentration, individual mice", "setting": "PO 10 mg/kg, 1 hr, 10 mg/kg", "result": "1290.84 ng/G and 1149.69 ng/G"},
      {"measurement": "Brain/plasma ratio, individual mice", "setting": "PO 10 mg/kg, 1 hr, 10 mg/kg", "result": "2.485 mL/G and 2.152 mL/G and 2.158 mL/G"},
      {"measurement": "Brain/plasma ratio, Mean", "setting": "PO 10 mg/kg, 2 hr", "result": 2.329, "unit": "mL/G"},
      {"measurement": "Blood concentration, individual mice", "setting": "PO 10 mg/kg, 2 hr, 10 mg/kg", "result": "128.34 ng/mL and 83.99 ng/mL and 219.54 ng/mL"},
      {"measurement": "Brain tissue concentration, individual mice", "setting": "PO 10 mg/kg, 2 hr, 10 mg/kg", "result": "277.53 ng/G and 206.08 ng/G and 520.70 ng/G"},
      {"measurement": "Brain/plasma ratio, individual mice", "setting": "PO 10 mg/kg, 2 hr, 10 mg/kg", "result": "2.163 mL/G and 2.454 mL/G and 2.372 mL/G"},
      {"measurement": "Brain/plasma ratio, Mean", "setting": "PO 10 mg/kg, 4 hr", "result": 2.052, "unit": "mL/G"},
      {"measurement": "Blood concentration, individual mice", "setting": "PO 10 mg/kg, 4 hr, 10 mg/kg", "result": "27.74 ng/mL and 18.40 ng/mL and 10.71 ng/mL"},
      {"measurement": "Brain tissue concentration, individual mice", "setting": "PO 10 mg/kg, 4 hr, 10 mg/kg", "result": "65.84 ng/G and 44.67 ng/G and 14.52 ng/G"},
      {"measurement": "Brain/plasma ratio, individual mice", "setting": "PO 10 mg/kg, 4 hr, 10 mg/kg", "result": "2.373 mL/G and 2.428 mL/G and 1.355 mL/G"}
    ]}
  ]
}
